Assay results: article PMC4550094 (Journal of biomolecular screening, 2013)
Read-outs that look alike come from different tables or passages of the source.

Key:
HepG2 cells [1] = settings: cited from earlier work; for EC50: read-out: Literature-Reported EC50
HepG2 cells [2] = assay: LipidTOX Red PLD assay, qHTS, 1536-well high-content imaging; assay type: cell-based, Human; settings: for PLD induction (result in words): HepG2, primary screen and cherry-pick confirmation; for EC50: Homo sapiens, HepG2, 24 h
H4 cells = settings: cited from earlier work
hERG channel = settings: cited from earlier work
Rat brain = settings: cited from earlier work
I13-35 cells = settings: read-out: Literature-Reported EC50; I13-35 cells; cited from earlier work
isolated lamellar bodies = settings: Binding study; cited from earlier work
[3] = read-out: Confirmation EC50 (PLD induction)
[4] = read-out: Primary Screen EC50 (PLD induction)

| Structure (SMILES) | Literature-Reported: Active at (concentration) (HepG2 cells [1]) | PLD induction (result in words) (HepG2 cells [2]) | EC50 (HepG2 cells [2]; [3]) | EC50 (HepG2 cells [2]; [4]) | further results |
| --- | --- | --- | --- | --- | --- |
| CN(C)CCC=C1c2ccccc2COc2ccccc21 [Doxepin] | Active at 25 µM | – | – | – | – |
| Fc1ccc([C@@H]2CCNC[C@H]2COc2ccc3c(c2)OCO3)cc1 [Paroxetine] | – | induce PLD | 3 ± 0.7 µM | 5.6 µM | Literature-Reported: Active at (concentration) (H4 cells): Active at 5 µM |
| N=C(N)c1ccc(OCCCCCOc2ccc(C(=N)N)cc2)cc1 [Pentamidine] | – | – | 2.8 ± 2.4 µM | 1.4 µM | EC50 (HepG2 cells [1]): 8.3 µM |
| CN1CCN(C2=Nc3cc(Cl)ccc3Nc3ccccc32)CC1 [Clozapine] | Active at 16 µM | – | – | – | – |
| CN(C)CCC=C1c2ccccc2CCc2ccccc21 [Amitriptyline] | – | – | 4.6 ± 0.5 µM | 10 µM | EC50 (HepG2 cells [1]): 15 µM |
| CC(C)(C)c1ccc(C(=O)CCCN2CCC(OC(c3ccccc3)c3ccccc3)CC2)cc1 [Ebastine] | – | significantly induced PLD formation | – | – | HERG channel block (hERG channel): blocking |
| C=C[C@H]1C[N@@]2CC[C@H]1C[C@@H]2[C@@H](O)c1ccnc2ccc(OC)cc12 [Quinidine] | – | – | 13.4 ± 2 µM | 15.8 µM | EC50 (HepG2 cells [1]): 25 µM |
| CCN(CC)CCCC(C)Nc1c2ccc(Cl)cc2nc2ccc(OC)cc12 (centres unmarked) [Quinacrine] | – | induce PLD | 1 ± 0.2 µM | 5 µM | Literature-Reported: Active at (dose) (Rat brain): Active at 60 mg/kg |
| CCOC(=O)N1CCC(=C2c3ccc(Cl)cc3CCc3cccnc32)CC1 [Loratadine] | Active at 16 µM | – | – | – | – |
| CC(=O)N1CCN(c2ccc(OCC3COC(Cn4ccnc4)(c4ccc(Cl)cc4Cl)O3)cc2)CC1 (centres unmarked) [Ketoconazole] | Active at 8.3 µM | – | 5.4 ± 2 µM | 2.8 µM | – |
| CN(C)CCCN1c2ccccc2Sc2ccccc21 [Promazine] | – | – | 5.7 ± 1.9 µM | 22.4 µM | EC50 (I13-35 cells): 5.3 µM |
| CC(CN(C)C)CN1c2ccccc2CCc2ccccc21 (centres unmarked) [Trimipramine] | – | induce PLD | 8.7 ± 1.2 µM | 3.5 µM | Literature-Reported: Active at (concentration) (isolated lamellar bodies): Active at 1 mM |
